In article PMC3800496 (ACS Chemical Biology, 2013):

Tests used:
Assay in all cases: anti-proliferation assay
Assay type in all cases: cell-based
HCT-116(OWT) = conditions: Homo sapiens, HCT-116, 48 h, read-out: anti-proliferation GI50
T47D(OWT) = conditions: Homo sapiens, 48 h, read-out: anti-proliferation GI50
A549(WT) = conditions: Homo sapiens, A549, 48 h, read-out: anti-proliferation GI50
H1975(WT) = conditions: Homo sapiens, NCI-H1975, 48 h, read-out: anti-proliferation GI50
SaoS2(WT) = conditions: Homo sapiens, SAOS-2, 48 h, read-out: anti-proliferation GI50
SkBr3(WT) = conditions: Homo sapiens, SK-BR-3, 48 h, read-out: anti-proliferation GI50
SW480(OWT) = conditions: Homo sapiens, SW480, 48 h, read-out: anti-proliferation GI50
SNU-1040(OMT) = conditions: Homo sapiens, 48 h, read-out: anti-proliferation GI50
EJ(WT) = conditions: 48 h, read-out: anti-proliferation GI50
SNU-449(OMT) = conditions: Homo sapiens, SNU-449, 48 h, read-out: anti-proliferation GI50

CCN1CCN(Cc2ccc(C(=O)Nc3ccc(C)c(Oc4ccc5c(c4)CC(=O)N5)c3)cc2C(F)(F)F)CC1 [DDR1-IN-1]
GI50 (HCT-116(OWT)): 8.7 µM
GI50 (T47D(OWT)): > 10 µM
GI50 (A549(WT)): > 10 µM
GI50 (H1975(WT)): > 10 µM
GI50 (SaoS2(WT)): 8.14 µM
GI50 (SkBr3(WT)): > 10 µM
GI50 (SW480(OWT)): > 10 µM
GI50 (SNU-1040(OMT)): > 10 µM
GI50 (EJ(WT)): > 10 µM
GI50 (SNU-449(OMT)): > 10 µM
